{"source": "patent US4471131A", "about": "“Novel silyl esters of N-phosphonomethylglycine” (Monsanto Company, priority 1983, dated 1984)", "experiment_in_all_cases": "post-emergence herbicidal activity, greenhouse", "format_in_all_cases": "in vivo", "key": {"Yellow Nutsedge": {"tested_on": "Yellow Nutsedge", "conditions": "Table II, formulated in anhydrous tetrahydrofuran", "text": "(§1) A good grade of top soil is placed in aluminum pans having holes in the bottom and compacted to a depth of 0.95 to 1.27 cm. from the top of the pan. A predetermined number of seeds of each of several dicotyledonous and moncotyledonous annual plant species and/or vegetative propagules for the perennial plant species were placed on the soil and pressed into the soil surface. The seeds and/or vegetative propagules are covered with soil and leveled. The pans are then placed on a sand bench in the greenhouse and watered from below as needed. After the plants reach the desired age (two to three weeks), each pan, except for the control pans, is removed individually to a spraying chamber and sprayed by means of an atomizer at the rates noted. In the spray solution is an amount of an emulsifying agent mixture to give a spray solution or suspension which contains about 0.4% by weight of the emulsifier. The spray solution or suspension contains a sufficient amount of the candidate chemical in order to give application rates corresponding to those set forth in the tables. The pans were returned to the greenhouse and watered as before and the injury to the plants as compared to the control is observed at approximately two and four weeks and the results recorded. In the tables, WAT means \"weeks after treatment.\"\n(§2) The post-emergent herbicidal activity index used in Tables II and III is as follows:\n(§3) The plant species utilized in these tests are identified by letter in accordance with the following legend: […]"}, "Barnyardgrass": {"tested_on": "Barnyardgrass", "conditions": "formulated in anhydrous tetrahydrofuran", "text": "as §1, §2, §3"}, "Sugar Beet": {"tested_on": "Sugar Beet", "conditions": "Table III, formulated in anhydrous tetrahydrofuran", "text": "as §1, §2, §3"}, "Morningglory": {"tested_on": "Morningglory", "conditions": "formulated in anhydrous tetrahydrofuran", "text": "as §1, §2, §3"}, "Johnsongrass": {"tested_on": "Johnsongrass", "conditions": "Table II, formulated in anhydrous tetrahydrofuran", "text": "as §1, §2, §3"}, "Canada Thistle": {"tested_on": "Canada Thistle", "conditions": "Table II, formulated in anhydrous tetrahydrofuran", "text": "as §1, §2, §3"}, "Large Crabgrass": {"tested_on": "Large Crabgrass", "conditions": "Table III, formulated in anhydrous tetrahydrofuran", "text": "as §1, §2, §3"}, "Hemp Sesbania": {"tested_on": "Hemp Sesbania", "conditions": "Table III, formulated in anhydrous tetrahydrofuran", "text": "as §1, §2, §3"}, "Wild Buckwheat": {"tested_on": "Wild Buckwheat", "conditions": "Table III, formulated in anhydrous tetrahydrofuran", "text": "as §1, §2, §3"}, "Velvetleaf": {"tested_on": "Velvetleaf", "conditions": "formulated in anhydrous tetrahydrofuran", "text": "as §1, §2, §3"}}, "data": [{"smiles": "CCCCOC(=O)CNCP(=O)(O)O[Si](C)(C)C(C)(C)C", "note": "[Ex. 3, Glycine, N-((([(1,1-Dimethylethyl)Dimethylsilyl]oxy)Hydroxyphosphinyl)Methyl)-, Butyl Ester]", "values": [{"measurement": "Plant Response Index (G)", "setting": "Yellow Nutsedge; 2 WAT, 5.6 kg/h", "value": "1 (25-49% inhibition)"}, {"measurement": "Plant Response Index (G)", "setting": "Yellow Nutsedge; 2 WAT, 11.2 kg/h", "value": "1 (25-49% inhibition)"}, {"measurement": "Plant Response Index (G)", "setting": "Yellow Nutsedge; 4 WAT, 5.6 kg/h", "value": "2 (50-74% inhibition)"}, {"measurement": "Plant Response Index (G)", "setting": "Yellow Nutsedge; 4 WAT, 11.2 kg/h", "value": "2 (50-74% inhibition)"}, {"measurement": "Plant Response Index (K)", "setting": "Barnyardgrass; Table II, 2 WAT, 5.6 kg/h", "value": "2 (50-74% inhibition)"}, {"measurement": "Plant Response Index (K)", "setting": "Barnyardgrass; Table II, 2 WAT, 11.2 kg/h", "value": "2 (50-74% inhibition)"}, {"measurement": "Plant Response Index (K)", "setting": "Barnyardgrass; Table II, 4 WAT, 5.6 kg/h", "value": "2 (50-74% inhibition)"}, {"measurement": "Plant Response Index (K)", "setting": "Barnyardgrass; Table II, 4 WAT, 11.2 kg/h", "value": "3 (75-99% inhibition)"}, {"measurement": "Plant Response Index (K)", "setting": "Barnyardgrass; Table III, 2 WAT, 1.1 kg/h", "value": "2 (50-74% inhibition)"}, {"measurement": "Plant Response Index (K)", "setting": "Barnyardgrass; Table III, 2 WAT, 5.6 kg/h", "value": "2 (50-74% inhibition)"}, {"measurement": "Plant Response Index (K)", "setting": "Barnyardgrass; Table III, 2 WAT, .28 kg/h", "value": "1 (25-49% inhibition)"}, {"measurement": "Plant Response Index (K)", "setting": "Barnyardgrass; Table III, 4 WAT, 1.1 kg/h", "value": "2 (50-74% inhibition)"}, {"measurement": "Plant Response Index (K)", "setting": "Barnyardgrass; Table III, 4 WAT, 5.6 kg/h", "value": "3 (75-99% inhibition)"}, {"measurement": "Plant Response Index (K)", "setting": "Barnyardgrass; Table III, 4 WAT, .28 kg/h", "value": "1 (25-49% inhibition)"}, {"measurement": "Plant Response Index (M)", "setting": "Sugar Beet; 2 WAT, 1.1 kg/h", "value": "1 (25-49% inhibition)"}, {"measurement": "Plant Response Index (M)", "setting": "Sugar Beet; 2 WAT, 5.6 kg/h", "value": "2 (50-74% inhibition)"}, {"measurement": "Plant Response Index (M)", "setting": "Sugar Beet; 2 WAT, .28 kg/h", "value": "0 (0-24% inhibition)"}, {"measurement": "Plant Response Index (M)", "setting": "Sugar Beet; 4 WAT, 1.1 kg/h", "value": "1 (25-49% inhibition)"}, {"measurement": "Plant Response Index (M)", "setting": "Sugar Beet; 4 WAT, 5.6 kg/h", "value": "3 (75-99% inhibition)"}, {"measurement": "Plant Response Index (M)", "setting": "Sugar Beet; 4 WAT, .28 kg/h", "value": "0 (0-24% inhibition)"}, {"measurement": "Plant Response Index (D)", "setting": "Morningglory; Table II, 2 WAT, 5.6 kg/h", "value": "1 (25-49% inhibition)"}, {"measurement": "Plant Response Index (D)", "setting": "Morningglory; Table II, 2 WAT, 11.2 kg/h", "value": "1 (25-49% inhibition)"}, {"measurement": "Plant Response Index (D)", "setting": "Morningglory; Table II, 4 WAT, 5.6 kg/h", "value": "1 (25-49% inhibition)"}, {"measurement": "Plant Response Index (D)", "setting": "Morningglory; Table II, 4 WAT, 11.2 kg/h", "value": "2 (50-74% inhibition)"}, {"measurement": "Plant Response Index (D)", "setting": "Morningglory; Table III, 2 WAT, 1.1 kg/h", "value": "2 (50-74% inhibition)"}, {"measurement": "Plant Response Index (D)", "setting": "Morningglory; Table III, 2 WAT, 5.6 kg/h", "value": "2 (50-74% inhibition)"}, {"measurement": "Plant Response Index (D)", "setting": "Morningglory; Table III, 2 WAT, .28 kg/h", "value": "1 (25-49% inhibition)"}, {"measurement": "Plant Response Index (D)", "setting": "Morningglory; Table III, 4 WAT, 1.1 kg/h", "value": "2 (50-74% inhibition)"}, {"measurement": "Plant Response Index (D)", "setting": "Morningglory; Table III, 4 WAT, 5.6 kg/h", "value": "2 (50-74% inhibition)"}, {"measurement": "Plant Response Index (D)", "setting": "Morningglory; Table III, 4 WAT, .28 kg/h", "value": "1 (25-49% inhibition)"}, {"measurement": "Plant Response Index (I)", "setting": "Johnsongrass; 2 WAT, 5.6 kg/h", "value": "0 (0-24% inhibition)"}, {"measurement": "Plant Response Index (I)", "setting": "Johnsongrass; 2 WAT, 11.2 kg/h", "value": "1 (25-49% inhibition)"}, {"measurement": "Plant Response Index (I)", "setting": "Johnsongrass; 4 WAT, 5.6 kg/h", "value": "1 (25-49% inhibition)"}, {"measurement": "Plant Response Index (I)", "setting": "Johnsongrass; 4 WAT, 11.2 kg/h", "value": "2 (50-74% inhibition)"}, {"measurement": "Plant Response Index (A)", "setting": "Canada Thistle; 2 WAT, 5.6 kg/h", "value": "1 (25-49% inhibition)"}, {"measurement": "Plant Response Index (A)", "setting": "Canada Thistle; 2 WAT, 11.2 kg/h", "value": "1 (25-49% inhibition)"}, {"measurement": "Plant Response Index (A)", "setting": "Canada Thistle; 4 WAT, 5.6 kg/h", "value": "1 (25-49% inhibition)"}, {"measurement": "Plant Response Index (A)", "setting": "Canada Thistle; 4 WAT, 11.2 kg/h", "value": "2 (50-74% inhibition)"}, {"measurement": "Plant Response Index (T)", "setting": "Large Crabgrass; 2 WAT, 1.1 kg/h", "value": "3 (75-99% inhibition)"}, {"measurement": "Plant Response Index (T)", "setting": "Large Crabgrass; 2 WAT, 5.6 kg/h", "value": "4 (100% inhibition)"}, {"measurement": "Plant Response Index (T)", "setting": "Large Crabgrass; 2 WAT, .28 kg/h", "value": "3 (75-99% inhibition)"}, {"measurement": "Plant Response Index (T)", "setting": "Large Crabgrass; 4 WAT, 1.1 kg/h", "value": "4 (100% inhibition)"}, {"measurement": "Plant Response Index (T)", "setting": "Large Crabgrass; 4 WAT, 5.6 kg/h", "value": "4 (100% inhibition)"}, {"measurement": "Plant Response Index (T)", "setting": "Large Crabgrass; 4 WAT, .28 kg/h", "value": "4 (100% inhibition)"}, {"measurement": "Plant Response Index (R)", "setting": "Hemp Sesbania; 2 WAT, 1.1 kg/h", "value": "1 (25-49% inhibition)"}, {"measurement": "Plant Response Index (R)", "setting": "Hemp Sesbania; 2 WAT, 5.6 kg/h", "value": "4 (100% inhibition)"}, {"measurement": "Plant Response Index (R)", "setting": "Hemp Sesbania; 2 WAT, .28 kg/h", "value": "1 (25-49% inhibition)"}, {"measurement": "Plant Response Index (R)", "setting": "Hemp Sesbania; 4 WAT, 1.1 kg/h", "value": "1 (25-49% inhibition)"}, {"measurement": "Plant Response Index (R)", "setting": "Hemp Sesbania; 4 WAT, 5.6 kg/h", "value": "4 (100% inhibition)"}, {"measurement": "Plant Response Index (R)", "setting": "Hemp Sesbania; 4 WAT, .28 kg/h", "value": "0 (0-24% inhibition)"}, {"measurement": "Plant Response Index (Q)", "setting": "Wild Buckwheat; 2 WAT, 1.1 kg/h", "value": "2 (50-74% inhibition)"}, {"measurement": "Plant Response Index (Q)", "setting": "Wild Buckwheat; 2 WAT, 5.6 kg/h", "value": "3 (75-99% inhibition)"}, {"measurement": "Plant Response Index (Q)", "setting": "Wild Buckwheat; 2 WAT, .28 kg/h", "value": "1 (25-49% inhibition)"}, {"measurement": "Plant Response Index (Q)", "setting": "Wild Buckwheat; 4 WAT, 1.1 kg/h", "value": "2 (50-74% inhibition)"}, {"measurement": "Plant Response Index (Q)", "setting": "Wild Buckwheat; 4 WAT, 5.6 kg/h", "value": "4 (100% inhibition)"}, {"measurement": "Plant Response Index (Q)", "setting": "Wild Buckwheat; 4 WAT, .28 kg/h", "value": "0 (0-24% inhibition)"}, {"measurement": "Plant Response Index (C)", "setting": "Velvetleaf; Table II, 2 WAT, 5.6 kg/h", "value": "0 (0-24% inhibition)"}, {"measurement": "Plant Response Index (C)", "setting": "Velvetleaf; Table II, 2 WAT, 11.2 kg/h", "value": "1 (25-49% inhibition)"}, {"measurement": "Plant Response Index (C)", "setting": "Velvetleaf; Table II, 4 WAT, 5.6 kg/h", "value": "1 (25-49% inhibition)"}, {"measurement": "Plant Response Index (C)", "setting": "Velvetleaf; Table II, 4 WAT, 11.2 kg/h", "value": "2 (50-74% inhibition)"}, {"measurement": "Plant Response Index (C)", "setting": "Velvetleaf; Table III, 2 WAT, 1.1 kg/h", "value": "2 (50-74% inhibition)"}, {"measurement": "Plant Response Index (C)", "setting": "Velvetleaf; Table III, 2 WAT, 5.6 kg/h", "value": "3 (75-99% inhibition)"}, {"measurement": "Plant Response Index (C)", "setting": "Velvetleaf; Table III, 2 WAT, .28 kg/h", "value": "1 (25-49% inhibition)"}, {"measurement": "Plant Response Index (C)", "setting": "Velvetleaf; Table III, 4 WAT, 1.1 kg/h", "value": "2 (50-74% inhibition)"}]}]}
